{
  "source": "patent US20160378912A1",
  "about": "“STRUCTURE-BASED MODELING AND TARGET-SELECTIVITY PREDICTION” (EPIGENETX, LLC, priority 2013, published 2016)",
  "origin": "cited, not measured here",
  "details_in_all_cases": "cited from earlier work",
  "key": {"HDAC2": {"target": "HDAC2 (Homo sapiens, UniProt Q92769)", "sequence (Q92769 whole entry)": "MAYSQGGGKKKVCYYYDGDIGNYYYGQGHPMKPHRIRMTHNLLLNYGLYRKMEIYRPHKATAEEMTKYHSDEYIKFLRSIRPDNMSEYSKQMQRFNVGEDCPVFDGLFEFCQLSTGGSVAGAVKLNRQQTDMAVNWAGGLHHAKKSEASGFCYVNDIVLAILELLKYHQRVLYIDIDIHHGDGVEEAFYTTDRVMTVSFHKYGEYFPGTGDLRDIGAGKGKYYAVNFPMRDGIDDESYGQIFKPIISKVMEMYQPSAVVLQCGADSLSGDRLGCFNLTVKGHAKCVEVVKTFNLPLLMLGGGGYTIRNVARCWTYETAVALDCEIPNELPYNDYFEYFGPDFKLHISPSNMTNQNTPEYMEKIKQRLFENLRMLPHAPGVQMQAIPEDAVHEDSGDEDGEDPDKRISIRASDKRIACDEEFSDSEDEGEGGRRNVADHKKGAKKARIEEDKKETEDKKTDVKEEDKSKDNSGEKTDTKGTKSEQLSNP"}, "HDAC10": {"target": "T1, HDAC10 (Homo sapiens, UniProt Q969S8)", "T1 sequence (Q969S8 1-669)": "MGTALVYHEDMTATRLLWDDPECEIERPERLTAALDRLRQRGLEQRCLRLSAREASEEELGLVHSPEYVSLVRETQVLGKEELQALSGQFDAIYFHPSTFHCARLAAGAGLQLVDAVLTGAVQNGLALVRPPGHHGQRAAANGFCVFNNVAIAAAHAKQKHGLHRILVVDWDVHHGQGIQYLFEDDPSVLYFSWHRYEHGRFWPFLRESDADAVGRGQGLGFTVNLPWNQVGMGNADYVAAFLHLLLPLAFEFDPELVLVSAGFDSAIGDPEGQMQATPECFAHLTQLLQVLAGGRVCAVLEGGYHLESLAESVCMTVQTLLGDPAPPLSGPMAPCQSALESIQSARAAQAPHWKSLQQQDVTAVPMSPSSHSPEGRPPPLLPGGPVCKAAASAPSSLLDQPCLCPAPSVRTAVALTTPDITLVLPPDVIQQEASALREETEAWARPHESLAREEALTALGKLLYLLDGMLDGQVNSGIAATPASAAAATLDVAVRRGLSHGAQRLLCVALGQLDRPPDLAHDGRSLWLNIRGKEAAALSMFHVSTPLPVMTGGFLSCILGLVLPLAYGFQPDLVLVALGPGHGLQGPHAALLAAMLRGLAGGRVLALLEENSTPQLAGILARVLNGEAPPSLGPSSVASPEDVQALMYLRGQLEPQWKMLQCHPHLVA"}, "HDAC1": {"target": "HDAC1 (Homo sapiens, UniProt Q13547)", "sequence (Q13547 whole entry)": "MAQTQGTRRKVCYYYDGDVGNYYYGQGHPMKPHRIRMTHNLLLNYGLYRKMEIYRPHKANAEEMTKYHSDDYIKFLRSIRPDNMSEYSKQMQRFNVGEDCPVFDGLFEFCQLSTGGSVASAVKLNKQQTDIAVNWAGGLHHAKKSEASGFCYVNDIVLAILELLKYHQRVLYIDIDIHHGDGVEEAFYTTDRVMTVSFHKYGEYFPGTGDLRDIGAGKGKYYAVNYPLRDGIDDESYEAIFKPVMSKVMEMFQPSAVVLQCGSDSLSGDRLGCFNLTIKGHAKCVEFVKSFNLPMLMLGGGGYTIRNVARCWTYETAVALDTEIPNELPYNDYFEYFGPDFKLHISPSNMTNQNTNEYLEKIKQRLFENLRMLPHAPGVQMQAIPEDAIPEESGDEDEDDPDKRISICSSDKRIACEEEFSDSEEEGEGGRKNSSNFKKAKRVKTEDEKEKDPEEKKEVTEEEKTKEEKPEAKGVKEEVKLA"}, "HDAC8": {"target": "T2, HDAC8 (Homo sapiens, UniProt Q9BY41)", "T2 sequence (Q9BY41 1-377)": "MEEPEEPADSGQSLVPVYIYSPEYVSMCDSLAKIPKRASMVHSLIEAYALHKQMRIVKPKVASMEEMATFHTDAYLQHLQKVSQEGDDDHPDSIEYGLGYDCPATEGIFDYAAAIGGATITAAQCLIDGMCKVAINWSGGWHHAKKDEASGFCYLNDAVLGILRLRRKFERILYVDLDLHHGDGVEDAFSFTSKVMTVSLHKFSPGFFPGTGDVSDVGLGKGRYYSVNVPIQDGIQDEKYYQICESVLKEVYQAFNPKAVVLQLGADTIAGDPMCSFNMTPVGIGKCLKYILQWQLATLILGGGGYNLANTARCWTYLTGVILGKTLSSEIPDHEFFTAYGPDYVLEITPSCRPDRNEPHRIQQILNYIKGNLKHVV"}, "[1]": {"details": "training set, read-out: HDACs inhibitory activities IC50"}, "[2]": {"details": "experimental value of modeled complex"}},
  "data": [
    {"smiles": "CCCC(=O)O", "note": "[NABUT, Butyrate]", "values": [
      {"measurement": "pIC50", "setting": "HDAC2; training set composition", "value": 4.54},
      {"measurement": "IC50", "setting": "HDAC2; [1]", "value": 28.9, "unit": "µM"},
      {"measurement": "pIC50exp", "setting": "HDAC10; [2]", "value": 3.535},
      {"measurement": "pIC50", "setting": "HDAC10; training set composition", "value": 3.54},
      {"measurement": "IC50", "setting": "HDAC10; [1]", "value": 292, "unit": "µM"},
      {"measurement": "pIC50exp", "setting": "HDAC1; [2]", "value": 3.496},
      {"measurement": "pIC50", "setting": "HDAC1; training set composition", "value": 3.50},
      {"measurement": "IC50", "setting": "HDAC1; [1]", "value": 319, "unit": "µM"},
      {"measurement": "pIC50", "setting": "HDAC8; training set composition", "value": 4.07},
      {"measurement": "IC50", "setting": "HDAC8; [1]", "value": 85.6, "unit": "µM"}
    ]}
  ]
}
